Measured values from ChEMBL document CHEMBL2069296, “A novel series of G-quadruplex ligands with selectivity for HIF-expressing osteosarcoma and renal cancer cell lines” (Bioorg Med Chem Lett, 2012).
Each block holds one molecule with its values, some of them ahead of it. Activity calls are given as the source filed them. No cut-off for these calls is given here.

What was measured:
[1] = Antiproliferative activity against human 786-O cells after 96 hrs by SRB assay; format: functional, cell-based; conditions: 786-0, 96 h
HOS-TE85 = experiment: Antiproliferative activity against human MNNG-HOS cells after 96 hrs by SRB assay; format: functional, cell-based; conditions: HOS-TE85, 96 h
PC-3 = experiment: Antiproliferative activity against human PC3 cells after 96 hrs by SRB assay; format: functional, cell-based; conditions: PC-3, 96 h
MCF7 = experiment: Antiproliferative activity against human MCF7 cells after 96 hrs by SRB assay; format: functional, cell-based; conditions: MCF7, 96 h
MG-63 = experiment: Antiproliferative activity against human MG63 cells after 96 hrs by SRB assay; format: functional, cell-based; conditions: MG-63, 96 h
HOS = experiment: Antiproliferative activity against human HOS cells after 96 hrs by SRB assay; format: functional, cell-based
[2] = Antiproliferative activity against human TC71 cells after 96 hrs by SRB assay; format: functional, cell-based; conditions: TC-71, 96 h
U2OS [3] = experiment: Antiproliferative activity against human U2OS cells after 96 hrs by SRB assay; format: functional, cell-based
A498 = experiment: Antiproliferative activity against human A498 cells after 96 hrs by SRB assay; format: functional, cell-based; conditions: A498, 96 h
HPAC = experiment: Antiproliferative activity against human HPAC cells after 96 hrs by SRB assay; format: functional, cell-based
[4] = Antiproliferative activity against human RCC4/VHL cells after 96 hrs by SRB assay; format: functional, cell-based
[5] = Antiproliferative activity against human RCC4 cells after 96 hrs by SRB assay; format: functional, cell-based; conditions: RCC4, 96 h
OST = experiment: Antiproliferative activity against human OST cells after 96 hrs by SRB assay; format: functional, cell-based
[6] = Antiproliferative activity against human TC32 cells after 96 hrs by SRB assay; format: functional, cell-based; conditions: TC-32, 96 h
WI-38 = experiment: Cytotoxicity against human WI38 after 96 hrs by SRB assay; format: cell-based; conditions: WI-38, 96 h
A549 = experiment: Antiproliferative activity against human A549 cells after 96 hrs by SRB assay; format: functional, cell-based; conditions: A549, 96 h
SAOS-2 = experiment: Antiproliferative activity against human Saos2 cells after 96 hrs by SRB assay; format: functional, cell-based; conditions: SAOS-2, 96 h
MIA PaCa-2 = experiment: Antiproliferative activity against human MIAPaCa2 cells after 96 hrs by SRB assay; format: functional, cell-based; conditions: MIA PaCa-2, 96 h
[7] = Antiproliferative activity against human TC135 cells after 96 hrs by SRB assay; format: functional, cell-based; conditions: TC135, 96 h
PANC-1 = experiment: Antiproliferative activity against human PANC1 cells after 96 hrs by SRB assay; format: functional, cell-based; conditions: PANC-1, 96 h
Nucleic Acid [8] = experiment: Binding affinity to HIF1alpha DNA by surface plasmon resonance assay; format: nucleic-acid assay
Nucleic Acid [9] = experiment: Binding affinity to 5'-GGGGCGGGCACGGGGCGGG-3' DNA by surface plasmon resonance; format: nucleic-acid assay
Nucleic Acid [10] = experiment: Binding affinity to HIF2alpha DNA by surface plasmon resonance assay; format: nucleic-acid assay
[11] = Therapeutic index, ratio of IC50 for human 786-O cells to IC50 for human WI38 cells; format: cell-based, WI-38; conditions: 786-O cells and WI38 cells, read-out: Ratio IC50
[12] = Therapeutic index, ratio of IC50 for human TC135 cells to IC50 for human WI38 cells; format: cell-based; conditions: TC135 cells and WI38 cells, read-out: Ratio IC50
Nucleic Acid [13] = experiment: Binding affinity to HIF1alpha DNA in by circular dichroism; format: nucleic-acid assay
[14] = biological target: T1, Hypoxia inducible factors; HIF-1-alpha, HIF-2-alpha (Homo sapiens) (UniProt Q16665+Q99814); experiment: Inhibition of HIF1 transactivation in human U2OS cells after 4 hrs by luciferase reporter gene assay; format: cell-based
[15] = Therapeutic index, ratio of IC50 for human OST cells to IC50 for human WI38 cells; format: cell-based; conditions: OST cells and WI38 cells, read-out: Ratio IC50
[16] = Ratio of IC50 for human RCC4/VHL cells to IC50 for human RCC4 cells; format: functional
[17] = biological target: Hypoxia-inducible factor 1-alpha (Homo sapiens) (UniProt Q16665); experiment: Inhibition of HIF1alpha in human U2OS cells in normaxia condition; format: cell-based
Hypoxia-inducible factor 1-alpha (Homo sapiens), sequence (Q16665 whole entry, looked up): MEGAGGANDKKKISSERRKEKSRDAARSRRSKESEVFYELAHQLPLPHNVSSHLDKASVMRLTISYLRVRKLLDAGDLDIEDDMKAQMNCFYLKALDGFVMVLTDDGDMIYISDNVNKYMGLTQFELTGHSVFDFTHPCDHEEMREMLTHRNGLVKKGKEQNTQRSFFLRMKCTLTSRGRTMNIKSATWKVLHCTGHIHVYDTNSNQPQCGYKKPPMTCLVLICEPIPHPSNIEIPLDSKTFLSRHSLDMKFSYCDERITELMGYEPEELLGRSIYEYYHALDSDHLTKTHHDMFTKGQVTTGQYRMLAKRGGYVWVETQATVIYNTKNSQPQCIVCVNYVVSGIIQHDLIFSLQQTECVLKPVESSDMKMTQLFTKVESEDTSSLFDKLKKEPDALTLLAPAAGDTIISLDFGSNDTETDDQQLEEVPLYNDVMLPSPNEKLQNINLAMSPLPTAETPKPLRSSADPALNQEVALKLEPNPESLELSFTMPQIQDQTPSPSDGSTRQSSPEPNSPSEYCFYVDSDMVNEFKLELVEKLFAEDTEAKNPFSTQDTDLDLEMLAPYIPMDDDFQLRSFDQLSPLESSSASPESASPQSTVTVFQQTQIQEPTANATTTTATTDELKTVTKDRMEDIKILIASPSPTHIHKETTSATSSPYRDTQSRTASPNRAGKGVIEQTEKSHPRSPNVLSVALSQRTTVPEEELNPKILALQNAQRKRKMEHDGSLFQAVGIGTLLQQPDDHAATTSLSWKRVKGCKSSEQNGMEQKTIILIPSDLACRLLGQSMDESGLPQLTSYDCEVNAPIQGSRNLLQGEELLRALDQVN

[18] = Therapeutic index, ratio of IC50 for human MIAPaCa2 cells to IC50 for human WI38 cells; format: cell-based, MIA PaCa-2; conditions: MIAPaCa2 cells and WI38 cells, read-out: Ratio IC50
[19] = Therapeutic index, ratio of IC50 for human MNNG-HOS cells to IC50 for human WI38 cells; format: cell-based, HOS-TE85; conditions: MNNG-HOS cells and WI38 cells, read-out: Ratio IC50
[20] = Ratio of cell viability in human RCC4/VHL cells to cell viability in human RCC4 cells in hypoxia condition; format: functional
[21] = biological target: T1, Hypoxia inducible factors; HIF-1-alpha, HIF-2-alpha (Homo sapiens); experiment: Inhibition of HIF1 transactivation in human U2OS cells after 4 hrs by luciferase reporter gene assay relative to untreated control; format: cell-based; conditions: concentration not given here
U2OS [22] = experiment: Downregulation of HIF1alpha mRNA level in human U2OS cells at 5 fold IC50 concentration after 4 hrs by RT-PCR analysis relative to untreated control; format: functional
[23] = Therapeutic index, ratio of IC50 for human MG63 cells to IC50 for human WI38 cells; format: cell-based, WI-38; conditions: MG63 cells and WI38 cells, read-out: Ratio IC50
[24] = biological target: Hypoxia-inducible factor 1-alpha (Homo sapiens) (UniProt Q16665); experiment: Inhibition of HIF1alpha in human U2OS cells in hypoxia condition; format: cell-based
[25] = Therapeutic index, ratio of IC50 for human U2OS cells to IC50 for human WI38 cells; format: cell-based; conditions: U2OS cells and WI38 cells, read-out: Ratio IC50
U2OS [26] = experiment: Downregulation of HIF1alpha protein level in human U2OS cells at 5 fold IC50 concentration within 2 hrs by Western blot analysis; format: functional, cell-based
[27] = Therapeutic index, ratio of IC50 for human A549 cells to IC50 for human WI38 cells; format: cell-based; conditions: A549 cells and WI38 cells, read-out: Ratio IC50
[28] = Therapeutic index, ratio of IC50 for human A498 cells to IC50 for human WI38 cells; format: cell-based; conditions: A498 cells and WI38 cells, read-out: Ratio IC50

Structure (SMILES): O=C(CCN1CCCC1)Nc1cccc(-n2cc(-c3ccc4ccc(-c5cn(-c6cccc(NC(=O)CCN7CCCC7)c6)nn5)cc4c3)nn2)c1
IC50 [1]: 5.85 µM
IC50 (HOS-TE85): 2.9 µM
IC50 (PC-3): 9.4 µM
IC50 (MCF7): 30 µM
IC50 (MG-63): > 100 µM
IC50 (HOS): 7.1 µM
IC50 [2]: 8.9 µM
IC50 (U2OS [3]): 13 µM
IC50 (A498): 7.5 µM
IC50 (HPAC): 8 µM
IC50 [4]: 6.8 µM
IC50 [5]: 4.2 µM
IC50 (OST): 2.2 µM
IC50 [6]: 1.9 µM
IC50 (WI-38): 18 µM
IC50 (A549): 76 µM
IC50 (SAOS-2): 2.7 µM
IC50 (MIA PaCa-2): 11 µM
IC50 [7]: 2.5 µM
IC50 (PANC-1): 7.1 µM

Structure (SMILES): O=C(CN1CCCC1)Nc1ccc(-n2cc(-c3ccc4ccc(-c5cn(-c6ccc(NC(=O)CN7CCCC7)cc6)nn5)cc4c3)nn2)cc1
IC50 [1]: 2.6 µM
IC50 (HOS-TE85): 9.1 µM
IC50 (PC-3): 91 µM
K (Nucleic Acid [8]): 1.49 ×10⁷ /M
K (Nucleic Acid [9]): inactive
IC50 (MCF7): > 100 µM
IC50 (MG-63): > 10 µM
IC50 (HOS): 2.6 µM
IC50 [2]: 14 µM
IC50 (U2OS [3]): 18 µM
IC50 (A498): 3.5 µM
IC50 (HPAC): 9.5 µM
IC50 [4]: 6.4 µM
K (Nucleic Acid [10]): 0.97 ×10⁷ /M
IC50 [5]: 5.1 µM
IC50 (OST): 14 µM
IC50 [6]: 2.5 µM
IC50 (WI-38): 26 µM
IC50 (A549): 80.5 µM
IC50 (SAOS-2): 9 µM
IC50 (MIA PaCa-2): 25.5 µM
IC50 [7]: 3.2 µM
IC50 (PANC-1): 88 µM

Molecules with a lower IC50 (PC-3), results first:

IC50 (PC-3): 8.2 µM
IC50 (MCF7): 9.2 µM
IC50 (U2OS [3]): 5.1 µM
IC50 (A549): 7.6 µM
IC50 (MIA PaCa-2): 12.5 µM
IC50 (PANC-1): 8 µM
Structure (SMILES): CCN(CC)CCC(=O)Nc1ccc(-n2cc(-c3ccc4ccc(-c5cn(-c6ccc(NC(=O)CCN(CC)CC)cc6)nn5)cc4c3)nn2)cc1
IC50 [1]: 5.6 µM
IC50 (HOS-TE85): 2.8 µM
IC50 (MG-63): 7 µM
IC50 (HOS): 5.2 µM
IC50 [2]: 7.5 µM
IC50 (A498): 6.9 µM
IC50 (HPAC): 6.9 µM
IC50 [4]: 2.4 µM
IC50 [5]: 1.9 µM
IC50 (OST): 1.9 µM
IC50 [6]: 2.1 µM
IC50 (WI-38): 7.4 µM
IC50 (SAOS-2): 2.5 µM
IC50 [7]: 2.2 µM

IC50 (PC-3): 8.05 µM
Activity (Nucleic Acid [13]): Active
K (Nucleic Acid [8]): 0.29 ×10⁷ /M
inhibition [14]: Dose-dependent effect
K (Nucleic Acid [9]): < 100000 M⁻¹
inhibition [17]: Dose-dependent effect
IC50 (MCF7): 63 µM
IC50 (U2OS [3]): 5.5 µM
inhibition [21]: 7%
K (Nucleic Acid [10]): 0.27 ×10⁷ /M
inhibition [24]: Dose-dependent effect
IC50 (A549): 60 µM
IC50 (MIA PaCa-2): 16.8 µM
IC50 (PANC-1): 31 µM
Structure (SMILES): CCN(CC)CC(=O)Nc1cccc(-n2cc(-c3ccc4ccc(-c5cn(-c6cccc(NC(=O)CN(CC)CC)c6)nn5)cc4c3)nn2)c1
IC50 [1]: 2.3 µM
IC50 (HOS-TE85): 3.2 µM
selectivity ratio [11]: 40
selectivity ratio [12]: 40
selectivity ratio [15]: 40
Ratio IC50 [16]: 2
selectivity ratio [18]: 40
IC50 (MG-63): 7.9 µM
selectivity ratio [19]: 40
Ratio [20]: 2.1
IC50 (HOS): 2.4 µM
IC50 [2]: 7.8 µM
IC50 (A498): 2.5 µM
IC50 (HPAC): 7.3 µM
Activity (U2OS [22]): 79.7%
IC50 [4]: 2.6 µM
selectivity ratio [23]: 40
IC50 [5]: 1.3 µM
IC50 (OST): 2.6 µM
IC50 [6]: 0.9 µM
selectivity ratio [25]: 40
IC50 (WI-38): 91 µM
Activity (U2OS [26]): Active
selectivity ratio [27]: 40
IC50 (SAOS-2): 2.6 µM
IC50 [7]: 2.4 µM
selectivity ratio [28]: 40

IC50 (PC-3): 7.1 µM
IC50 (MCF7): 8.1 µM
IC50 (U2OS [3]): 2.2 µM
IC50 (A549): 17 µM
IC50 (MIA PaCa-2): 7.2 µM
IC50 (PANC-1): 7.8 µM
Structure (SMILES): O=C(CCN1CCCC1)Nc1ccc(-n2cc(-c3ccc4ccc(-c5cn(-c6ccc(NC(=O)CCN7CCCC7)cc6)nn5)cc4c3)nn2)cc1
IC50 [1]: 6.5 µM
IC50 (HOS-TE85): 2.1 µM
IC50 (MG-63): 2.8 µM
IC50 (HOS): 0.6 µM
IC50 [2]: 16 µM
IC50 (A498): 1.9 µM
IC50 (HPAC): 1.9 µM
IC50 [4]: 2.6 µM
IC50 [5]: 2.5 µM
IC50 (OST): 0.9 µM
IC50 [6]: 0.7 µM
IC50 (WI-38): 3.9 µM
IC50 (SAOS-2): 1.8 µM
IC50 [7]: 2.2 µM
